Laboratory results published in patent US8084649B2, “Herbicides” (Syngenta Crop Protection, inc., priority 2007, dated 2011).

Tests used:
[1] = tested on: Alopecurus myosuroides (ALOMY); assay: Pre-emergence herbicidal activity, glasshouse pot test; format: in vivo; conditions: Alopecurus myosuroides, 480 h, rate 500 g/ha, evaluated after 20 days, read-out: Pre-emergence activity, ALOMY (100=total damage to plant; 0=no damage to plant)
Summary of the method: (§1)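 Pots were sown in sterilised standard soil and, one day after sowing, sprayed pre-emergence with an aqueous solution of the formulated compound. Plants were grown on in a greenhouse and damage was scored after 20 days on a 0–100 scale, where 100 means total damage.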

[2] = tested on: Avena fatua (AVEFA); assay: as above; format: in vivo; conditions: Avena fatua, 480 h, rate 500 g/ha, evaluated after 20 days, read-out: Pre-emergence activity, AVEFA (100=total damage to plant; 0=no damage to plant)
Summary of the method: as §1

[3] = tested on: Setaria faberi (SETFA); assay: as above; format: in vivo; conditions: Setaria faberi, 480 h, rate 500 g/ha, evaluated after 20 days, read-out: Pre-emergence activity, SETFA (100=total damage to plant; 0=no damage to plant)
Summary of the method: as §1

[4] = tested on: Digitaria sanguinalis (DIGSA); assay: as above; format: in vivo; conditions: Digitaria sanguinalis, 480 h, rate 500 g/ha, evaluated after 20 days, read-out: Pre-emergence activity, DIGSA (100=total damage to plant; 0=no damage to plant)
Summary of the method: as §1

[5] = tested on: Lolium perenne (LOLPE); assay: as above; format: in vivo; conditions: Lolium perenne, 480 h, rate 500 g/ha, evaluated after 20 days, read-out: Pre-emergence activity, LOLPE (100=total damage to plant; 0=no damage to plant)
Summary of the method: as §1

[6] = tested on: Echinochloa crus-galli (ECHCG); assay: as above; format: in vivo; conditions: Echinochloa crus-galli, 480 h, rate 500 g/ha, evaluated after 20 days, read-out: Pre-emergence activity, ECHCG (100=total damage to plant; 0=no damage to plant)
Summary of the method: as §1

[7] = tested on: Alopecurus myosuroides (ALOMY); assay: Post-emergence herbicidal activity, glasshouse pot test; format: in vivo; conditions: Alopecurus myosuroides, evaluated after 14 or 15 days, read-out: Post-emergence activity, ALOMY (100=total damage to plant; 0=no damage to plant); for pest or weed control at 500 g/ha: rate 500 g/ha; for pest or weed control at 125 g/ha: rate 125 g/ha
Summary of the method: (§2)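 Test species were grown in sterilised soil for 10 days, sprayed post-emergence with the aqueous formulated compound, and kept in a greenhouse under optimum conditions. Herbicidal effect was assessed after 14 or 15 days as percent damage, where 0 means no effect.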

[8] = tested on: Avena fatua (AVEFA); assay: as above; format: in vivo; conditions: Avena fatua, evaluated after 14 or 15 days, read-out: Post-emergence activity, AVEFA (100=total damage to plant; 0=no damage to plant); for pest or weed control at 500 g/ha: rate 500 g/ha; for pest or weed control at 125 g/ha: rate 125 g/ha
Summary of the method: as §2

[9] = tested on: Setaria faberi (SETFA); assay: as above; format: in vivo; conditions: Setaria faberi, evaluated after 14 or 15 days, read-out: Post-emergence activity, SETFA (100=total damage to plant; 0=no damage to plant); for pest or weed control at 500 g/ha: rate 500 g/ha; for pest or weed control at 125 g/ha: rate 125 g/ha
Summary of the method: as §2

[10] = tested on: Digitaria sanguinalis (DIGSA); assay: as above; format: in vivo; conditions: Digitaria sanguinalis, evaluated after 14 or 15 days, read-out: Post-emergence activity, DIGSA (100=total damage to plant; 0=no damage to plant); for pest or weed control at 500 g/ha: rate 500 g/ha; for pest or weed control at 125 g/ha: rate 125 g/ha
Summary of the method: as §2

[11] = tested on: Lolium perenne (LOLPE); assay: as above; format: in vivo; conditions: Lolium perenne, evaluated after 14 or 15 days, read-out: Post-emergence activity, LOLPE (100=total damage to plant; 0=no damage to plant); for pest or weed control at 500 g/ha: rate 500 g/ha; for pest or weed control at 125 g/ha: rate 125 g/ha
Summary of the method: as §2

[12] = tested on: Echinochloa crus-galli (ECHCG); assay: as above; format: in vivo; conditions: Echinochloa crus-galli, evaluated after 14 or 15 days, read-out: Post-emergence activity, ECHCG (100=total damage to plant; 0=no damage to plant); for pest or weed control at 500 g/ha: rate 500 g/ha; for pest or weed control at 125 g/ha: rate 125 g/ha
Summary of the method: as §2

Row | Structure (SMILES) | melting point | pest or weed control at 500 g/ha [1] | pest or weed control at 500 g/ha [2] | pest or weed control at 500 g/ha [3] | pest or weed control at 500 g/ha [4] | pest or weed control at 500 g/ha [5] | pest or weed control at 500 g/ha [6] | pest or weed control at 500 g/ha [7] | pest or weed control at 500 g/ha [8] | pest or weed control at 500 g/ha [9] | pest or weed control at 500 g/ha [10] | pest or weed control at 500 g/ha [11] | pest or weed control at 500 g/ha [12] | pest or weed control at 125 g/ha [7] | pest or weed control at 125 g/ha [8] | pest or weed control at 125 g/ha [9] | pest or weed control at 125 g/ha [10] | pest or weed control at 125 g/ha [11] | pest or weed control at 125 g/ha [12]
1 | Cc1cc(C)c(C2=C(O)CC(CC(C)SC(C)C)CC2=O)c(C)c1 (stereo not drawn) [Compound T39] | – | 70% | 70% | 70% | 90% | 80% | 60% | – | – | – | – | – | – | 10% | 0% | 10% | 30% | 0% | 20%
2 | CCCS(=O)(=O)C(C)CC1CC(=O)C(c2c(C)cc(C)cc2C)=C(O)C1 (stereo not drawn) [Compound T40] | – | 80% | 50% | 60% | 50% | 90% | 70% | – | – | – | – | – | – | 80% | 30% | 50% | 50% | 80% | 60%
3 | CCC[S+]([O-])C(C)CC1CC(=O)C(c2c(C)cc(C)cc2C)=C(O)C1 (stereo not drawn) [Compound T41] | – | 90% | 60% | 80% | 100% | 100% | 80% | – | – | – | – | – | – | 90% | 70% | 50% | 80% | 80% | 70%

Further lines, with some results ahead:

Row | melting point | Structure (SMILES) | pest or weed control at 500 g/ha [1] | pest or weed control at 500 g/ha [2] | pest or weed control at 500 g/ha [3] | pest or weed control at 500 g/ha [4] | pest or weed control at 500 g/ha [5] | pest or weed control at 500 g/ha [6] | pest or weed control at 500 g/ha [7] | pest or weed control at 500 g/ha [8] | pest or weed control at 500 g/ha [9] | pest or weed control at 500 g/ha [10] | pest or weed control at 500 g/ha [11] | pest or weed control at 500 g/ha [12] | pest or weed control at 125 g/ha [7] | pest or weed control at 125 g/ha [8] | pest or weed control at 125 g/ha [9] | pest or weed control at 125 g/ha [10] | pest or weed control at 125 g/ha [11] | pest or weed control at 125 g/ha [12]
4 | 108 to 114 °C | Cc1ccc(C)c(C2=C(OC(=O)N(C)CCC#N)CC3(CCOCC3)CC2=O)c1 [Compound P57] | – | – | – | – | – | – | – | – | – | – | – | – | – | – | – | – | – | –
5 | 94.5 to 97.5 °C | CCc1ccc(-c2ccc(Cl)cc2)cc1C1=C(O)CC2(CCOCC2)CC1=O [Compound T4, 9-(5-(4′-chlorophenyl)-2-ethylphenyl)-3-oxaspiro[5.5]undecane-8,10-dione] | 70% | 70% | 100% | 100% | 70% | 100% | 90% | 80% | 90% | 100% | 70% | 100% | – | – | – | – | – | –
6 | 58 to 61 °C | CCc1cc(C)cc(CC)c1C1=C(O)CC(CC(C)[S+]([O-])CC)CC1=O (stereo not drawn) [Compound T29, 2-(2,6-diethyl-4-methylphenyl)-5-[2-(ethylsulfinyl)propyl]cyclohexane-1,3-dione] | 100% | 90% | 100% | 100% | 100% | 100% | 90% | 100% | 90% | 100% | 90% | 100% | – | – | – | – | – | –
